From patent US12459974B2, “Bicyclic peptide ligands specific for Nectin-4” (priority 2018, dated 2025)
*1 amine or outer side, *2 acyl side, *3 side chain or, on linkers, in order; H or OH if unused. Where a SMILES comes first, the peptide text is derived from it. Bridges are numbered along the chain shown (N, C = ends). [ ]: non-standard residue; d: D form. TATA = O=C(CC[*:1])N1CN(C(=O)CC[*:2])CN(C(=O)CC[*:3])C1; hArg = N=C(N)NCCCC[C@H](N)C(=O)O; Pip = O=C(O)[C@@H]1CCCCN1; βAla = NCCC(=O)O; Sar = CNCC(=O)O

The molecules below were run against T1, human Nectin-4 (Homo sapiens, UniProt Q96NY8) (assay: Nectin-4 competition binding assay (fluorescence polarisation)). Settings: competition with fluorescent peptide SEQ ID NO: 217; read-out: Ki.
T1 sequence (Q96NY8 32-510): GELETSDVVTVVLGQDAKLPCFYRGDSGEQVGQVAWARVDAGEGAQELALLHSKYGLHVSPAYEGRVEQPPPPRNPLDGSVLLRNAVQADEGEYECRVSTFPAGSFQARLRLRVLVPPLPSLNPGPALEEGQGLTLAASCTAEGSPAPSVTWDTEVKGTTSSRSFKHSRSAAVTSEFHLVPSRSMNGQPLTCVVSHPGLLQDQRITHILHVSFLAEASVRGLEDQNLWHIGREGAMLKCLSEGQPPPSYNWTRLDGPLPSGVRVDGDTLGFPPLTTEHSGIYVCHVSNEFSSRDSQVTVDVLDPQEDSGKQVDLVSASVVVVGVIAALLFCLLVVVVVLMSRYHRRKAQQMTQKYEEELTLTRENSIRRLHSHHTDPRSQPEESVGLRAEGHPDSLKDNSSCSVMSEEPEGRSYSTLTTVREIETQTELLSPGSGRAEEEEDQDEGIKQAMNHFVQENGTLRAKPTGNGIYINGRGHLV
Description: Peptides were diluted to an appropriate concentration in assay buffer as described in the direct binding assay with a maximum of 5% DMSO, then serially diluted 1 in 2. Five μL of diluted peptide was added to the plate followed by 10 μL of human Nectin-4, then 10 μL fluorescent peptide added. Measurements were conducted as for the direct binding assay, however the gain was determined prior to the first measurement. Data analysis was in Systat Sigmaplot version 12.0 where the mP values were fit to a user defined cubic equation to generate a Ki value: • f=ymin+(ymax−ymin)/Lig*((Lig*((2*((Klig+Kcomp+Lig+Comp-Prot*c)^2-3*(Kcomp*(Lig-Prot*c)+Klig*(Comp-Prot*c)+Klig*Kcomp))^0.5*COS(ARCCOS((−2*(Klig+Kcomp+Lig+Comp-Prot*c)^3+9*(Klig+Kcomp+Lig+Comp-Prot*c)*(Kcomp*(Lig-Prot*c)+Klig*(Comp-Prot*c)+Klig*Kcomp)−27*(−1*Klig*Kcomp*Prot*c)/(2*((((Klig+Kcomp+Lig+Comp-Prot*c)^2−3*(Kcomp*(Lig-Prot*c)+Klig*(Comp-Prot*c)+Klig*Kcomp))^3)^0.5)))/3))−(Klig+Kcomp+Lig+Comp-Prot*c)))/((3*Klig)+((2*((Klig+Kcomp+Lig+Comp-Prot*c)^2−3*(Kcomp*(Lig-Prot*c)+Klig*(Comp-Prot*c)+Klig*Kcomp))^0.5*COS (ARCCOS ((−2*(Klig+Kcomp+Lig+Comp-Prot*c)^3+9*(Klig+Kcomp+Lig+Comp-Prot*c)*(Kcomp*(Lig-Prot*c)+Klig*(Comp-Prot*c)+Klig*Kcomp)-27*(−1*Klig*Kcomp*Prot*c))/(2*((((Klig+Kcomp+Lig+Comp-Prot*c)^2-3*(Kcomp*(Lig-Prot*c)+Klig*(Comp-Prot+c)+Klig*Kcomp))^3)^0.5))/3)−(Klig+Kcomp+Lig+Comp-Prot*c)))).
“Lig”, “KLig” and “Prot” were all defined values relating to: fluorescent peptide concentration, the Kd of the fluorescent peptide and Nectin concentration respectively.

Row | SMILES | Ki
1 | CC[C@H](C)[C@@H]1NC(=O)[C@@H]2CCCN2C(=O)[C@H](Cc2c[nH]c3ccccc23)NC(=O)[C@H](C)NC(=O)[C@H](Cc2c[nH]c3ccccc23)NC(=O)[C@H](CC(N)=O)NC(=O)[C@H](CCCCN)NC(=O)[C@H](CCSC)NC(=O)[C@@H]2CSCCC(=O)N3CN(CN(C3)C(=O)CCSC[C@H](NC(=O)[C@H](C)N)C(=O)N3CCC[C@H]3C(=O)N[C@@H](Cc3ccccc3)C(=O)NCC(=O)N2)C(=O)CCSC[C@@H](C(=O)N[C@H](C(=O)N[C@@H](CC(N)=O)C(=O)N[C@@H](CCCCN)C(N)=O)[C@@H](C)O)NC(=O)[C@H](Cc2c[nH]c3ccccc23)NC1=O [BCY7424, A-(SEQ ID NO: 30)-TNK] (H-ACPFGCMKNWAWPIWCTNK-NH2; linker 2-6-16 via TATA; N-terminus and C-terminus assumed) | 562 nM
2 | CC[C@H](C)[C@@H]1NC(=O)[C@@H]2CCCN2C(=O)[C@H](CC(=O)O)NC(=O)[C@H](CO)NC(=O)[C@H](Cc2c[nH]c3ccccc23)NC(=O)[C@H](CC(N)=O)NC(=O)[C@H](CCCCN)NC(=O)[C@H](CCSC)NC(=O)[C@@H]2CSCCC(=O)N3CN(CN(C3)C(=O)CCSC[C@H](NC(C)=O)C(=O)N3CCC[C@H]3C(=O)N[C@@H](Cc3ccccc3)C(=O)NCC(=O)N2)C(=O)CCSC[C@@H](C(N)=O)NC(=O)[C@H](Cc2c[nH]c3ccccc23)NC1=O [BCY7540, Ac-(SEQ ID NO: 8)] (Ac-CPFGCMKNWSDPIWC-NH2; linker 1-5-15 via TATA; C-terminus assumed) | 357 nM
3 | CC[C@H](C)[C@@H]1NC(=O)[C@@H]2CCCN2C(=O)[C@H](Cc2c[nH]c3ccccc23)NC(=O)[C@H](CO)NC(=O)[C@H](Cc2c[nH]c3ccccc23)NC(=O)[C@H](CC(N)=O)NC(=O)[C@H](CCCCNC(=N)N)NC(=O)[C@H](CCSC)NC(=O)[C@@H]2CSCCC(=O)N3CN(CN(C3)C(=O)CCSC[C@H](NC(=O)CN(C)C(=O)CN(C)C(=O)CN(C)C(=O)CN(C)C(=O)CN(C)C(=O)CCNC(C)=O)C(=O)N3CCC[C@H]3C(=O)N[C@@H](Cc3ccccc3)C(=O)N[C@H](CC(=O)O)C(=O)N2)C(=O)CCSC[C@@H](C(N)=O)NC(=O)[C@H](Cc2c[nH]c3ccccc23)NC1=O [BCY7558, Ac-[B-Ala][Sar5]-(SEQ ID NO: 76)] (Ac-[βAla][Sar][Sar][Sar][Sar][Sar]CPF[dD]CM[hArg]NWSWPIWC-NH2; linker 7-11-21 via TATA) | 21.9 nM
4 | CC[C@H](C)[C@@H]1NC(=O)[C@@H]2CCCN2C(=O)[C@H](Cc2ccccc2)NC(=O)[C@H](CO)NC(=O)[C@H](Cc2c[nH]c3ccccc23)NC(=O)[C@H](CC(N)=O)NC(=O)[C@H](CCCCN)NC(=O)[C@H](CCSC)NC(=O)[C@@H]2CSCCC(=O)N3CN(CN(C3)C(=O)CCSC[C@H](NC(C)=O)C(=O)N3CCC[C@H]3C(=O)N[C@@H](Cc3ccccc3)C(=O)NCC(=O)N2)C(=O)CCSC[C@@H](C(N)=O)NC(=O)[C@H](Cc2c[nH]c3ccccc23)NC1=O [BCY7589, Ac-(SEQ ID NO: 84)] (Ac-CPFGCMKNWSFPIWC-NH2; linker 1-5-15 via TATA; C-terminus assumed) | 34.5 nM
5 | CC[C@H](C)[C@@H]1NC(=O)[C@@H]2CCCCN2C(=O)[C@H](Cc2c[nH]c3ccccc23)NC(=O)[C@H](CO)NC(=O)[C@H](Cc2c[nH]c3ccccc23)NC(=O)[C@H](CC(N)=O)NC(=O)[C@H](CCCCN)NC(=O)[C@H](CCSC)NC(=O)[C@@H]2CSCCC(=O)N3CN(CN(C3)C(=O)CCSC[C@H](NC(C)=O)C(=O)N3CCC[C@H]3C(=O)N[C@@H](Cc3ccccc3)C(=O)NCC(=O)N2)C(=O)CCSC[C@@H](C(N)=O)NC(=O)[C@H](Cc2c[nH]c3ccccc23)NC1=O [BCY7595, Ac-(SEQ ID NO: 90)] (Ac-CPFGCMKNWSW[Pip]IWC-NH2; linker 1-5-15 via TATA) | 219 nM
6 | CC[C@H](C)[C@@H]1NC(=O)[C@@H]2CCCN2C(=O)[C@H](Cc2c[nH]c3ccccc23)NC(=O)[C@H](CO)NC(=O)[C@H](Cc2c[nH]c3ccccc23)NC(=O)[C@H](CC(N)=O)NC(=O)[C@H](CCCCN)NC(=O)[C@H](CCSC)NC(=O)[C@@H]2CSCCC(=O)N3CN(CN(C3)C(=O)CCSC[C@H](NC(=O)[C@@H](CC(=O)O)NC(C)=O)C(=O)N3CCC[C@H]3C(=O)N[C@@H](Cc3ccccc3)C(=O)NCC(=O)N2)C(=O)CCSC[C@@H](C(N)=O)NC(=O)[C@H](Cc2c[nH]c3ccccc23)NC1=O [BCY7606, Ac-[dD]-(SEQ ID NO: 1)] (Ac-[dD]CPFGCMKNWSWPIWC-NH2; linker 2-6-16 via TATA) | 34 nM

Results, then the molecule that gave them:

Row | Ki | SMILES
7 | 38.5 nM | CC[C@H](C)[C@@H]1NC(=O)[C@@H]2CCCN2C(=O)[C@H](Cc2ccc(O)cc2)NC(=O)[C@H](CO)NC(=O)[C@H](Cc2c[nH]c3ccccc23)NC(=O)[C@H](CC(N)=O)NC(=O)[C@H](CCCCN)NC(=O)[C@H](CCSC)NC(=O)[C@@H]2CSCCC(=O)N3CN(CN(C3)C(=O)CCSC[C@H](NC(C)=O)C(=O)N3CCC[C@H]3C(=O)N[C@@H](Cc3ccccc3)C(=O)NCC(=O)N2)C(=O)CCSC[C@@H](C(N)=O)NC(=O)[C@H](Cc2c[nH]c3ccccc23)NC1=O [BCY7590, Ac-(SEQ ID NO: 85)] (Ac-CPFGCMKNWSYPIWC-NH2; linker 1-5-15 via TATA; C-terminus assumed)
8 | 37.4 nM | CC[C@H](C)[C@@H]1NC(=O)[C@@H]2CCCN2C(=O)[C@H](Cc2ccc3ccccc3c2)NC(=O)[C@H](CO)NC(=O)[C@H](Cc2c[nH]c3ccccc23)NC(=O)[C@H](CC(N)=O)NC(=O)[C@H](CCCCN)NC(=O)[C@H](CCSC)NC(=O)[C@@H]2CSCCC(=O)N3CN(CN(C3)C(=O)CCSC[C@H](NC(C)=O)C(=O)N3CCC[C@H]3C(=O)N[C@@H](Cc3ccccc3)C(=O)NCC(=O)N2)C(=O)CCSC[C@@H](C(N)=O)NC(=O)[C@H](Cc2c[nH]c3ccccc23)NC1=O [BCY7592, Ac-(SEQ ID NO: 87)]
9 | 353 nM | CC[C@H](C)[C@@H]1NC(=O)[C@@H]2CCCN2C(=O)[C@H](Cc2c[nH]c3ccccc23)NC(=O)[C@H](CO)NC(=O)[C@H](Cc2c[nH]c3ccccc23)NC(=O)[C@H](CC(N)=O)NC(=O)[C@H](CCCCN)NC(=O)[C@H](CCSC)NC(=O)[C@@H]2CSCCC(=O)N3CN(CN(C3)C(=O)CCSC[C@H](NC(C)=O)C(=O)N3CCC[C@H]3C(=O)N[C@@H](Cc3ccccc3)C(=O)NCC(=O)N2)C(=O)CCSC[C@@H](C(N)=O)NC(=O)[C@H](Cc2ccccc2)NC1=O [BCY7596, Ac-(SEQ ID NO: 91)] (Ac-CPFGCMKNWSWPIFC-NH2; linker 1-5-15 via TATA)
10 | 169 nM | CC[C@H](C)[C@@H]1NC(=O)[C@@H]2CCCN2C(=O)[C@H](Cc2c[nH]c3ccccc23)NC(=O)[C@H](CO)NC(=O)[C@H](Cc2c[nH]c3ccccc23)NC(=O)[C@H](CC(N)=O)NC(=O)[C@H](CCCCN)NC(=O)[C@H](CCSC)NC(=O)[C@@H]2CSCCC(=O)N3CN(CN(C3)C(=O)CCSC[C@H](NC(C)=O)C(=O)N3CCC[C@H]3C(=O)N[C@@H](Cc3ccccc3)C(=O)NCC(=O)N2)C(=O)CCSC[C@@H](C(N)=O)NC(=O)[C@H](Cc2ccc(O)cc2)NC1=O [BCY7597, Ac-(SEQ ID NO: 92)] (Ac-CPFGCMKNWSWPIYC-NH2; linker 1-5-15 via TATA; C-terminus assumed)
